“And” between values parts separate entries of the source, which are not always exact repeats. Equal values may be shown once.
What was measured:
[1] = tested on: VEGF-induced migration of HUVECs; assay: VEGF-induced HUVEC migration assay; assay type: cell-based, human; details: for IC50: VEGF 10 ng/mL, 22 hours, read-out: IC50 for blocking VEGF-induced migration
Method: After 22 hours, quantitation of cell migration/invasion was achieved by post-labeling cells in the insert plates with a fluorescent dye and measuring the fluorescence of the invading/migrating cells in a fluorescent plate reader. The VEGF-induced migration was calculated by subtracting the migration that occurred when only basal medium was placed in the lower chamber of the wells.
(§1) Serum-starved HUVECs were placed, 100,000 cells per well, into the upper chambers of BD fibronectin-coated FluoroBlok 24-well insert plates. […] After 22 hours, quantitation of cell migration/invasion was achieved by post-labeling cells in the insert plates with a fluorescent dye and measuring the fluorescence of the invading/migrating cells in a fluorescent plate reader. The VEGF-induced migration was calculated for each experimental condition by subtracting the amount of migration that occurred when only basal medium was added to the lower chamber of the wells.
as §1, with “reader.” for “reader. The”, “observed in” for “that occurred when only basal medium was added to”, “absence” for “lower chamber”, “VEGF.” for “the wells.”
as §1, with “VEGF-stimulated” for “The VEGF-induced”, “derived” for “calculated for each experimental condition”, “basal migration measured in the absence” for “amount”, “VEGF.” for “migration that occurred when only basal medium was added to the lower chamber of the wells.”
Serum-starved HUVECs were placed, 100,000 cells per well, into the upper chambers of BD fibronectin-coated FluoroBlok 24-well insert plates. […] After 22 hours, quantitation of cell migration/invasion was achieved by post-labeling cells in the insert plates with a fluorescent dye and measuring the fluorescence of the invading/migrating cells in a fluorescent plate reader.

[2] = tested on: SW-480 human colon carcinoma cells; assay: In vivo inhibition of tumor growth, SW-480 xenograft in nude mice; details: for Tumor Weights: 6 mg/kg IV
Method: Female athymic nude mice (Crl:NU/NU-nuBR) at 6-8 weeks of age were used in this study. […] Test Articles and vehicle were administered intraperitoneally (IP), Cisplatin was administered intravenously (IV). Tumor measurements were recorded twice weekly using hand-held calipers. Mice were monitored daily for signs of toxicity and morbidity. At study termination, animals were euthanized by carbon dioxide overdose and necropsied for tissue collection.
A total of nine (9) groups were used in this study. Each group contained ten (10) tumor-bearing mice. Groups 1 and 2 contained untreated and vehicle treated negative control mice, respectively. […] Group 9 contained mice that received cisplatin, a standard chemotherapeutic compound as a positive control.
Dosing began the same day that animals were randomly sorted into groups (Study Day 7). Each dose was removed from the dose vial using aseptic technique for each animal and the injection site was wiped with an alcohol swab prior to dose administration. Doses were administered with a 1.0 mL syringe and a 27-gauge×½″ needle for each mouse
The Test Article- and vehicle-treated mice received daily intraperitoneal (IP) injections for 15 days. Cisplatin was administered every other workday for a total of five (5) doses via an intravenous route.
Clinical Observations of each animal were performed and recorded at least once daily for toxicity, morbidity and mortality. Morbidity included signs of illness such as, but not limited to, emaciation, dehydration, lethargy, hunched posture, unkempt appearance, dyspnea and urine or fecal staining.
In accordance with the protocol tumor measurements were taken twice weekly throughout the study by measuring the length and width of tumors with calibrated calipers. […] Tumor weights were calculated using the following formula: mg=(L×W^2)/2. Animals were euthanized either when mean tumor weight was ≧1000 mg per group over two (2) consecutive measurements, or if tumors became ulcerated, impaired the animal's ability to ambulate or obtain food and water.

[3] = tested on: KDR-expressing NMU-induced mammary tumor; assay: Contrast ultrasound with D5-containing microbubbles to monitor sunitinib treatment of NMU-induced tumors; assay type: in vivo, rat; details: for Area *10 (tumor size, fundamental B-mode): sunitinib 40 mg/kg/day from day 106, values multiplied by 10
Method: Four (4) female OFA rats (Charles River, Lyon, France) were investigated. At the specific age of 42 days, animals received intraperitoneal injection of N-methyl-N-nitrosourea 50 mg/kg (NMU, Sigma-Aldrich, ref D3254) prepared in 0.9% NaCl, in order to develop a KDR-expressing tumor in the animals (see latency period infra). […] Animals received food and water (tap water) ad libitum.
Stock solution was made weekly and stored at 4° C.
At the level of the tumor site, skin was gently shaved and an ultrasound coupling gel (Aquasonic 100, Parker, USA) was applied between the clinical ultrasound probe and the skin.
The linear probe L12-5 was used.
Vials of a contrast agent containing D5 were reconstituted in 2 ml glucose 5%. […] Emulsification was effected at 12′000 rpm (five minutes). The lyophilizate was reconsistituted as described above. The contrast agent was quickly injected through the catheter placed in the caudal vein at the dose of 2 μl gas per kg. […] Injections were performed at a constant rate of 4 ml/min.
Tumor size was assessed in fundamental-B mode […].
Contrast enhancement was quantified from Dicom files using an in-house quantification and providing, among other parameters, mean echo-signal values in areas of interest as a function of time. The amplitude of the echo signal was expressed as linearized echo amplitude values. Individual frames were analyzed, time-intensity curves were generated and Maximum intensity (Imax) was determined as an index of tumor vascularization and late phase opacification (LPO) was determined at 10 min after injection in the median plane of the tumor.

[4] = molecular target: KDR/VEGF complex on KDR-transfected 293H cells (Homo sapiens, UniProt P35968)
Method: Another stock solution was prepared in the same manner, but lacking VEGF. […] The mixtures were incubated on a rotator at 4 C for 60 minutes, followed by addition of 50 μL of soft release avidin-sepharose (50% slurry in ddH2O) to remove excess peptides and another incubation for 30 minutes on a rotator at 4 C. Finally, the soft release avidin-sepharose was pelleted by centrifuging at 12,000 rpm for 5 minutes at room temperature, and the resulting supernatants were used for the assays.
This establishes a utility for the assay as useful for targeting the KDR/VEGF complex in vitro and in vivo for diagnostic or therapeutic purposes.

[5] = molecular target: T1, KDR expressed in transiently-transfected 293H cells (Homo sapiens, UniProt P35968); assay: Binding of biotinylated peptide/neutravidin-HRP complexes to KDR-transfected 293H cells; assay type: cell-based; details: for Binding of tetrameric peptide/avidin-HRP complexes to KDR-transfected cells: 3.33 nM complex; for Reduction of binding of peptide/avidin HRP complex in presence of serum: 40% rat serum, single concentration 2.22-6.66 nM
T1 construct: Both PCR products were digested with Not1 and ligated together to create the full-length receptor; V5-His (of vector pcDNA6/V5-His C); expressed in transfected cells; host or cells: 293H cells (Invitrogen cat. #11631), transient, lipofectamine 2000

[6] = molecular target: T2, KDR-expressing 293H cells (Homo sapiens, UniProt P35968); assay: Bead-binding assay with peptide-conjugated fluorescent beads; assay type: cell-based; details: KDR- versus mock-transfected 293H cells, 40% FBS
T2 construct: Both PCR products were digested with Not1 and ligated together to create the full-length receptor; V5-His (of vector pcDNA6/V5-His C); expressed in transfected cells; host or cells: 293H cells (Invitrogen cat. #11631), transient, lipofectamine 2000
Method: The following procedures were performed to assess the ability of KDR-binding peptides to bind to KDR-expressing cells. In this procedure, KDR-binding peptides containing SEQ ID NOS:264, 337, 363, and 373 were conjugated to fluorescent beads, and their ability to bind to KDR-expressing 293H cells was assessed. The experiments show these peptides can be used to bind particles such as beads to KDR-expressing sites.
As a positive control, biotinylated anti-KDR antibody was incubated with the Neutravidin-coated beads as above, except that 0.03 mg of the biotinylated antibody preparation in PBS (Gibco #14190-136) was used instead of peptide solution. Beads can be stored at 4° C. until needed for up to 1 week.
From the above bead preparations, 0.12 mL was spun for 10 minutes at 2000 rpm in a microcentrifuge at room temperature. The supernatant was removed and 0.06 mL of MES pH 6.0 was added. Each bead solution was then vortexed and sonicated in a water bath 15 min. […] The plates were then read on a Packard FluoroCount fluorometer at excitation 550 nm/emission 620 nm. […]
To calculate the number of beads bound per well, a standard curve with increasing numbers of the same fluorescent beads was included in each assay plate. The standard curve was used to calculate the number of beads bound per well based on the fluorescence intensity of each well.

[7] = molecular target: KDR; assay: KD, B (μM)
Text: Head of the field: KD, B (μM)
Where the first naming reader finds the target: passage: truncated polypeptides tested for binding to KDR-expressing cells.

5 CF-Gly-N{[CH2CH2C(═O)-Gly-N(CH2CH2C(═O)-Adoa-Thr-Lys-Pro-Pro-Arg-OH]2}2 [Adjunct A]
Block of VEGF-induced migration ([1]; 100 nM alone): not by 100 nM Adjunct A alone

N.N.[Cl][Pt][Cl] [Cisplatin, reference compound]
Mean tumor weight on Study Day 22 ([2]; Group 9, intravenous, five doses): 995 mg

N.N.[Cl][Pt][Cl] [Cisplatnin]
Tumor Weights ([2]; day 4 after cell injection): 34 mg
Tumor Weights ([2]; day 7 after cell injection): 160 mg
Tumor Weights ([2]; day 8 after cell injection): 173 mg
Tumor Weights ([2]; day 11 after cell injection): 407 mg
Tumor Weights ([2]; day 14 after cell injection): 675 mg
Tumor Weights ([2]; day 20 after cell injection): 635 mg
Tumor Weights ([2]; day 21 after cell injection): 839 mg
Tumor Weights ([2]; day 22 after cell injection): 995 mg

CC(C)c1cc(/C=C(\C#N)C(=O)NCCCc2ccccc2)cc(C(C)C)c1O [SU-1498, reference compound]
VEGF-induced migration blocked ([1]; 3 micromolar): 47%

CCN(CC)CCNC(=O)c1c(C)[nH]c(/C=C2\C(=O)Nc3ccc(F)cc32)c1C [sunitinib, Sunitinib]
Change of tumor size as a percentage of the tumor prior sunitinib treatment ([3]; 48 hours after treatment, 40 mg/kg/day oral, individual rats, 40 mg/kg/day): −4.6% and −0.7% and 30%
Change of Imax ([3]; 48 hours after treatment, individual rats no. 1, 2, 3): −11% and +23% and +11%
Area *10 (tumor size, fundamental B-mode) ([3]; rat no. 1, day 108): 20.80
Area *10 (tumor size, fundamental B-mode) ([3]; rat no. 1, day 115): 11.00
Area *10 (tumor size, fundamental B-mode) ([3]; rat no. 1, day 116): 10.10
Area *10 (tumor size, fundamental B-mode) ([3]; rat no. 2, day 108): 26.70
Area *10 (tumor size, fundamental B-mode) ([3]; rat no. 2, day 109): 20.20
Area *10 (tumor size, fundamental B-mode) ([3]; rat no. 3, day 108): 7.5
Area *10 (tumor size, fundamental B-mode) ([3]; rat no. 3, day 114): 2.9
Area *10 (tumor size, fundamental B-mode) ([3]; rat no. 3, day 116): 3.0

AGPGPCKGYMPHQCWYMGTGGGK [SEQ ID NO:321]
Binding of peptide-125I-neutravidin complex in the presence of VEGF ([4]; KDR- versus mock-transfected cells): specifically bound to KDR-transfected 293H cells
Binding of peptide-125I-neutravidin complex in the absence of VEGF ([4]; VEGF omitted): not where VEGF was omitted

AGPKWCEEDWYYCMITGTGGGK [SEQ ID NO:264]
Binding of tetrameric peptide/avidin-HRP complexes to KDR-transfected cells [5]: bound to KDR-transfected cells significantly better than to mock-transfected cells
Reduction of binding of peptide/avidin HRP complex in presence of serum [5]: not significantly affected
Binding of peptide-conjugated fluorescent beads, JJ spacer [6]: enhanced binding to KDR cells

AGPTWCEDDWYYCWLFGTGGGK [SEQ ID NO:277]
Reduction of binding of peptide/avidin HRP complex in presence of serum [5]: more than 50%

Ac-AGPTWCEDDWYYCWLFGTGGGK (SEQ ID NO:277){Ac-GDSRVCWEDSWGGEVCFRYDPGGGK (SEQ ID NO:294)[JJ-Glut-NH(CH2)4-(S)—CH(NH2)C(═O)—]—NH2}—NH2 [D25]
IC50 [1]: 5 nM

Ac-AQDWYYDEILJGRGGRGGRGGK (SEQ ID NO:478) {K[Ac-VCWEDSWGGEVCFRYDPGGGK (SEQ ID NO:337) (JJ-Glut)-NH2]}—NH2 [D17]
IC50 [1]: ~250 nM

Ac-AQDWYYDEILSMADQLRHAFLSGGGGGK [SEQ ID NO:356]
Reduction of binding of peptide/avidin HRP complex in presence of serum [5]: not significantly affected

GDSRVCWEDSWGGEVCFGGGK [compound 369]
Kd [7]: 1300 nM

GDSRVCWEDSWGGEVCFRYDPGGGK [SEQ ID NO:294]
Binding of tetrameric peptide/avidin-HRP complexes to KDR-transfected cells [5]: bound to KDR-transfected cells significantly better than to mock-transfected cells
Reduction of binding of peptide/avidin HRP complex in presence of serum [5]: not significantly affected
Binding of peptide-conjugated fluorescent beads, JJ spacer [6]: significantly improved the specific binding to KDR

GDSRVCWEDSWGGEVCFRYGGGK [compound 372]
Kd [7]: 60 nM

SRVCWEDSWGGEVCFRYGGGGK [compound 371]
Kd [7]: 35 nM

VCWEDSWGGEVCFGGGK [compound 368]
Kd [7]: 910 nM

Reference: patent US9408926B2, “KDR and VEGF/KDR binding peptides and their use in diagnosis and therapy” (Bracco Suisse S.A., priority 2002, dated 2016)
